Test results reported in patent US8911952B2, “Method for integrin ligand discovery” (STC. UNM, priority 2010, dated 2014).
Structures can show the parent of a compound that is named as a salt. Marks after values point to notes of the source that are not given here. Blank lines part the entries; values can stand above or below the compound they belong to.

What was measured:
[1] = system: hematopoietic stem and progenitor cells (HSPCs); assay: Mobilization of hematopoietic stem and progenitor cells into the peripheral blood; conditions: mouse; for CFU/ml in peripheral Blood / WBC count/ml × 10^6: intraperitoneal, one hour prior to blood collection, thioridazine hydrochloride 1.25 mg/kg, AMD3100 5 mg/kg, Mean ± S.E.
VLA-4 [2] = biological target: T1, VLA-4 (Homo sapiens, UniProt P05556+P13612); assay: HUTS-21 antibody binding (ligand induced epitope exposure) on U937 cells; type: cell-based; parameters: host or cells: U937 (human histiocytic lymphoma); in part of the real-time experiments U937 stably transfected with a non-desensitizing FPR mutant, where VLA-4 itself is endogenous
Description: U937 cells were suspended in the HEPES buffer (see above) 1×10^6 cells/ml, 100 μl aliquots (10^5 cells) were incubated with different concentrations of unlabeled compounds for 10 min. Next, 20 μl of PE-labeled HUTS-21 antibodies was added and cells were incubated for additional […] at room temperature. Next, cells were washed with 1 ml of HEPES buffer, resuspended in 300-500 μl of buffer and analyzed by flow cytometry (FL2 channel, BD FACScan). The data were plotted as mean channel fluorescence vs. the concentration of the compound. The data were fitted to a sigmoidal dose-response equation. To determine the level of nonspecific binding, cells were stained in parallel with the isotype control antibodies.

LFA-1 = biological target: T2, LFA-1 (Homo sapiens, UniProt P05107+P20701); assay: Binding of MEM-148 mAbs to U937 cells (epitope exposure); type: cell-based
T2 construct: host or cells: U937 (human histiocytic lymphoma)
Source text: In order to confirm that similar results can be obtained with other integrins we have constructed a 3D model of αLβ2-integrin (LFA-1, CD11a/CD18). Amino acid residue critical for the binding of MEM-148 mAb to β2-integrin subunit (Pro 374) was highlighted as green space fill (1). This model was compared to the model of β1-integrin subunit, where critical residues (Ser370, Glu371, and Lys417) were highlighted in a similar way (2) (FIG. 8). It is worth noting that critical residues for both mAbs are positioned in a similar way on the inner side of the hybrid domain. Since the outward movement of the hybrid domain, induced by a ligand binding (at least for β1-integrin (2)), can be used to report occupancy of the ligand binding pocket (3), we decided to use MEM-148 mAbs to probe LFA-1 integrin conformation upon ligand binding.
To test this possibility, two αLβ2-integrin ligands were synthesized as described previously. Compound 3 (Genentech) and XVA143 (Roche) are shown to be LFA-1 specific antagonists (4) FIG. 9.

VLA-4 [3] = biological target: T1, VLA-4; assay: Detection of VLA-4 allosteric antagonists: HUTS-21 binding inhibition screen of the Prestwick Chemical Library
Description: 5 μl RPMI was added to columns 2-24. Column 1 was left empty for flow cytometry data binning purposes. Test compounds in DMSO (Prestwick Chemical Library, PCL) were added and mixed (0.1 μl of 1 mM stock solution). […] Compounds were added to 320 wells (columns 3-22). […] Columns 23, 24 were used for the positive control (no test compounds added). Next, 5 μl aliquots of U937 cells were suspended in RPMI 1640 at 3×10^6 cells/ml, loaded in 384 well plates, and mixed (1×10^6 cells/ml final). Cells were incubated for 10 min at RT. This time is sufficient for the binding of a small molecule (˜1 kD) at 10 μM at RT. […] Plates were incubated for 1 hour at 37° C. According to the real-time kinetic studies this time was sufficient to reach equilibrium. Next, wells were sampled using the high throughput flow cytometry platform (HyperCyt) at UNMCMD.
After data acquisition by the flow cytometer (CyAn™ ADP), proprietary software was used to analyze the data files (IDLQuery, at UNMCMD, developed by Bruce Edwards). The data were exported into a Microsoft Excel spreadsheet template, and the value for antibody binding inhibition (%) was calculated for each well as follows: % Inhibition=100(1−((MCFtest−MCFneg.control)/MCFpos.control−MCFneg.control))), where, MCF is mean channel fluorescence of cells with test compounds, and positive or negative control wells.

VLA-4 [4] = biological target: T1, VLA-4; assay: Real-time binding of HUTS-21 antibodies to U937 cells; type: cell-based; parameters: host or cells: U937 (human histiocytic lymphoma); in part of the real-time experiments U937 stably transfected with a non-desensitizing FPR mutant, where VLA-4 itself is endogenous; conditions: 1 nM LDV in the absence of the compound
Description: the Ability of a Flow Cytometer to Discriminate between free and bound fluorescent ligand in a homogeneous assay was used to determine the binding kinetics of mAbs in real-time (15; 26). Cells (10^6 cells/ml) were removed from ice and warmed in HEPES buffer containing 0.1% HSA for 10 min at 37° C. […] Screening hits at saturating concentration (10-30 μM final) or DMSO (vehicle) were added at point 0.

[5] = biological target: VLA-4 (very late antigen 4, CD49d/CD29, alpha4beta1 integrin) (human) (UniProt P13612); assay: flow cytometry on U937 cells, PE-HUTS-21 with rising LDV
VLA-4 (very late antigen 4, CD49d/CD29, alpha4beta1 integrin) (human), sequence (P13612 34-1032, chain 1 of 2): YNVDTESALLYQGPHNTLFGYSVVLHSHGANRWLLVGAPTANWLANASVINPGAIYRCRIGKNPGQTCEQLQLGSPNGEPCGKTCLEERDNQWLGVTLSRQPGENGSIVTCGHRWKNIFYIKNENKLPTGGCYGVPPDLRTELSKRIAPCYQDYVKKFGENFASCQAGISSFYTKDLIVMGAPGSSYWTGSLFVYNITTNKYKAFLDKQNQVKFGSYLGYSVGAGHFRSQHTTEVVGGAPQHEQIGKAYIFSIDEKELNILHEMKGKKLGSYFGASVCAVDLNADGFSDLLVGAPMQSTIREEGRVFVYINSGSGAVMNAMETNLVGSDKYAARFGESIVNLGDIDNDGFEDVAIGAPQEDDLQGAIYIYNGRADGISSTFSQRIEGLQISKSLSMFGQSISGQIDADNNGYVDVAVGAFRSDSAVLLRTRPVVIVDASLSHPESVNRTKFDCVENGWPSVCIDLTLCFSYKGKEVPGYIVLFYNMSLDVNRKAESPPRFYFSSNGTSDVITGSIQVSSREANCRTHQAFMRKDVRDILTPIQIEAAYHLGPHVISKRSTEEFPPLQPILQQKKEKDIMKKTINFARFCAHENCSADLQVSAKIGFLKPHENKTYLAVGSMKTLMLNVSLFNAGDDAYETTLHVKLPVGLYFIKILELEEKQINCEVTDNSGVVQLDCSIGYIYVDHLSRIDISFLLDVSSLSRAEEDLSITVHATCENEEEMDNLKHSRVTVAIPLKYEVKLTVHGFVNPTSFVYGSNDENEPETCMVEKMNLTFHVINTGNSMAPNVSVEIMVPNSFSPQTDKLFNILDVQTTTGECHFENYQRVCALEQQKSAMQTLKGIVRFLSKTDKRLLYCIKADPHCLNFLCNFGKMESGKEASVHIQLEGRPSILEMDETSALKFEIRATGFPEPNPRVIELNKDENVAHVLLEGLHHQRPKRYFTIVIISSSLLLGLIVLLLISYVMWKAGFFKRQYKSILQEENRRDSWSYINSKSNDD
VLA-4 (very late antigen 4, CD49d/CD29, alpha4beta1 integrin) (human), sequence (P05556 21-798, chain 2 of 2, further chain): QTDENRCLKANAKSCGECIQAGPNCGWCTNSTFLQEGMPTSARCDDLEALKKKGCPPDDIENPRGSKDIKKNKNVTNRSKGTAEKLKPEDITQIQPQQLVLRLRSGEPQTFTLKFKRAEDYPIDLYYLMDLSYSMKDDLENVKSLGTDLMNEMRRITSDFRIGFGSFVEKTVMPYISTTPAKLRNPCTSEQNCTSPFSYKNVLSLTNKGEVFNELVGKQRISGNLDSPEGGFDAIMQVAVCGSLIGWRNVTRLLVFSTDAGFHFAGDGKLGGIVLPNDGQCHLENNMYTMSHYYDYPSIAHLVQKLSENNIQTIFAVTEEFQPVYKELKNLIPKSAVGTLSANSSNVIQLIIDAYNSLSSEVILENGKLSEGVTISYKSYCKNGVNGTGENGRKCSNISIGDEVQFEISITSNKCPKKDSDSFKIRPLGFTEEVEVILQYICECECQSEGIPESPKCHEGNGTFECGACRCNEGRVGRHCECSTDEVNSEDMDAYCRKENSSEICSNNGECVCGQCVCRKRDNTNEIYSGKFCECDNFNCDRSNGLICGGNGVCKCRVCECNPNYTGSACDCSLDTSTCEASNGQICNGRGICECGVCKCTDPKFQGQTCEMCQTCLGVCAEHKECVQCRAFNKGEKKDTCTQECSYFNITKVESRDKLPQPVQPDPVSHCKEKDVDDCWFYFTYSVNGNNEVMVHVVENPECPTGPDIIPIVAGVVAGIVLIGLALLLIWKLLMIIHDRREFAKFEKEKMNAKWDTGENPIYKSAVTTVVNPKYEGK

T1 sequence (P13612 34-1032): as the sequence (P13612 34-1032, chain 1 of 2) above
T1 sequence (P05556 21-798): as the sequence (P05556 21-798, chain 2 of 2, further chain) above
T2 sequence (P20701 26-1170): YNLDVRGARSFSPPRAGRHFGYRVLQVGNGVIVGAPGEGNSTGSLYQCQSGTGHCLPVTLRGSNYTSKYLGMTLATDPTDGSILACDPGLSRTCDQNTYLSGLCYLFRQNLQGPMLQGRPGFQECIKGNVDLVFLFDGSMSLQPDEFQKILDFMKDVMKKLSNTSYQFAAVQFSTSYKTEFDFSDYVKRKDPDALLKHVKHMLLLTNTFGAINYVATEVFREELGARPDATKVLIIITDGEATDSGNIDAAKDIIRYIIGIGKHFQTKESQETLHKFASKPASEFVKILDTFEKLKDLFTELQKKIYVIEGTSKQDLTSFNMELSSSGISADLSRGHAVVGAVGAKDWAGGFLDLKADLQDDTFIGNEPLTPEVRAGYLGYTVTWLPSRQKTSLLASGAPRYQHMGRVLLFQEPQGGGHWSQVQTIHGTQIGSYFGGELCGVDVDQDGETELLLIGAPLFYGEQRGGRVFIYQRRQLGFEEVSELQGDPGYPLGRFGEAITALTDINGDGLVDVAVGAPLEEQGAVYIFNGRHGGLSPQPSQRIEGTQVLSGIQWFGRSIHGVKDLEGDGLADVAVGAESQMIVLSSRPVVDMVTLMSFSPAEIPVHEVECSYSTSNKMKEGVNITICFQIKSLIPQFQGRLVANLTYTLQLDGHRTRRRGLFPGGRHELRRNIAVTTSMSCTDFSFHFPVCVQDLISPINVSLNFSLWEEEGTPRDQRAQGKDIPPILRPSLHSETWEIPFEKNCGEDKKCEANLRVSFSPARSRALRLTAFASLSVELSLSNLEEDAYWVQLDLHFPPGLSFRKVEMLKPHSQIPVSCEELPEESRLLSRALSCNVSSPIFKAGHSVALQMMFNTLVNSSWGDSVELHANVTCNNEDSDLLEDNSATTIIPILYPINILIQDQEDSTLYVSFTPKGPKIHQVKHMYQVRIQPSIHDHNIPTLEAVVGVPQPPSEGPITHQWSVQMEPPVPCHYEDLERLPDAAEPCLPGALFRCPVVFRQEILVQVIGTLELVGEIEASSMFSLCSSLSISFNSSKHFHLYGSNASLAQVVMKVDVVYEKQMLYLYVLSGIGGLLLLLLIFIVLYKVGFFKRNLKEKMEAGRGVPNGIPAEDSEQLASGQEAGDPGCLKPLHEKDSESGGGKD
T2 sequence (P05107 23-769): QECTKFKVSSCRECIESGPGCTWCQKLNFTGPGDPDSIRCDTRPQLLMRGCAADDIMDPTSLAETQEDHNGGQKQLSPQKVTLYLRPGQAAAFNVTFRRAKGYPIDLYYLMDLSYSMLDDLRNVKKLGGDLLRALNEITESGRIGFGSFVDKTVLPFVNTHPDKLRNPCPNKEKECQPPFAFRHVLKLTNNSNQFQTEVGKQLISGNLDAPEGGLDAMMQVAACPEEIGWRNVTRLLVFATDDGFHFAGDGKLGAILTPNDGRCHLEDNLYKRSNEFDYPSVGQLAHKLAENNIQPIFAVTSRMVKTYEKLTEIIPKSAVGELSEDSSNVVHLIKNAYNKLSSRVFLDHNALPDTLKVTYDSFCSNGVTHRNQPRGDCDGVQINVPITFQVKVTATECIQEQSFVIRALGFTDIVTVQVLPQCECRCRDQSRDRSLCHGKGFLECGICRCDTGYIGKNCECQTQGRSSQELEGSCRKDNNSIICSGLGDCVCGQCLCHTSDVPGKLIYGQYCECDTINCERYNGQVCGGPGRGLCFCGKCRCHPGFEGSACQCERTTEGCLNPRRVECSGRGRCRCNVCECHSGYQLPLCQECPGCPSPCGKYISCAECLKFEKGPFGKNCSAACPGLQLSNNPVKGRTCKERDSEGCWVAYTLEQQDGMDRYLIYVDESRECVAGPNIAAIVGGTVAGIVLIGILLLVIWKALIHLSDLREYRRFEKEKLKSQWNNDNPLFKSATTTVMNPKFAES

Compound: c1cc(CN2CCCNCCNCCCNCC2)ccc1CN1CCCNCCNCCCNCC1 [AMD3100, AMD3100 octahydrochloride]
WBC count increase ([1]; AMD3100 5 mg/kg intraperitoneal, versus vehicle): ~2.1 fold | CFU/ml in peripheral Blood [1]: 511.8 ± 78.8^a CFU/ml | WBC count/ml × 10^6 [1]: 7.8 ± 0.7^b count/ml × 10^6

Compound: COc1cccc(OC)c1-c1ccc(C[C@H](NC(=O)c2c(Cl)cccc2Cl)C(=O)O)cc1 [TR14035, N-(2,6-dichlorobenzoyl)-(L)-4-(2′,6′-bis-methoxyphenyl)phenylalanine]
LIBS (HUTS-21 epitope) exposure (VLA-4 [2]): resulted in the LIBS exposure

Compound: CSc1ccc2c(c1)N(CCC1CCCCN1C)c1ccccc1S2 (stereo not drawn) [Thioridazine, Thioridazine hydrochloride]
CFU/ml in peripheral Blood [1]: 216.8 ± 42.1 CFU/ml | WBC count/ml × 10^6 [1]: 3.0 ± 0.3 count/ml × 10^6

exposure of MEM-148 epitope (LFA-1): induced exposure of MEM-148 epitope
Compound: O=C(NCc1cccc(O)c1)c1cc(Cl)c(C(=O)N[C@@H](CNC(=O)c2cc(O)cc(O)c2)C(=O)O)c(Cl)c1 [XVA143]

antagonistic activity in the HUTS-21 based screen (VLA-4 [3]): did not show any antagonistic activity
Compound: O=C(CCCN1CCC(O)(c2ccc(Cl)cc2)CC1)c1ccc(F)cc1 [haloperidol]

antagonistic activity in the HUTS-21 based screen (VLA-4 [3]): did not show any antagonistic activity
Compound: CCN(CC)CCNC(=O)c1cc(Cl)c(N)cc1OC [metoclopramide]

Compound: OCCN1CCN(CCCN2c3ccccc3Sc3ccc(Cl)cc32)CC1 [perphenazine]
LDV concentration required to induce HUTS-21 binding in the presence of the compound (VLA-4 [4]): 0.1 µM

antagonistic activity in the HUTS-21 based screen (VLA-4 [3]): did not show any antagonistic activity
Compound: CCN1CCCC1CNC(=O)c1cc(S(N)(=O)=O)ccc1OC (stereo not drawn) [sulpiride]

signal to background ratio [5]: 10
Compound: Mouse anti-human CD29, HUTS-21 (PE) (antibody)
